Laboratory results: patent US6355799B1, “Substituted benzene compounds, process for their preparation, and herbicidal and defoliant compositions containing them” (ISK Americas Incorporated, priority 1997, dated 2002)

Key:
Assay type in all cases: in vivo
[1] = test system: field corn (Zea mays L., var. Dekalb 535, CORN); assay: Post-emerge test, crop safety; conditions: post-emerge, 14 days after application, rating scale 0-100
Method in brief: (§1)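 Rating: 0–100 visual injury, 14 DAA. Application: acetone, 187 l/ha, 15–1000 g ai/ha, flat-fan track sprayer with nozzle 40–45 cm above soil or canopy. Post-emerge runs used 0.25% v/v surfactant on 2–3 leaf plants.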

[2] = test system: upland rice (Oryza sp., var. Tebonnet, RICE); assay: Post-emerge test, crop safety; conditions: post-emerge, 14 days after application, rating scale 0-100
Method in brief: as §1

[3] = test system: common ragweed (Ambrosia artemisizfolia L., AMBEL); assay: Pre-emerge test, greenhouse herbicide activity screening; conditions: rated 14 days after application, 0 = no damage, 100 = complete death
Method in brief: (§2)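 Compounds in acetone were track-sprayed at 15–1000 g ai/ha: pre-emergence onto soil sown the previous day, then top-watered to incorporate and later bottom-watered; post-emergence onto 2–3 leaf plants with 0.25% v/v surfactant, bottom-watered only. Ratings on a 0–100 phytotoxicity scale were taken at day 14.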

[4] = test system: large crabgrass (Digitaria sanguinalis, DIGSA); assay: as above; conditions: rated 14 days after application, 0 = no damage, 100 = complete death
Method in brief: as §2

[5] = test system: velvetleaf (Abutilon theophrasti, ABUTH); assay: as above; conditions: rated 14 days after application, 0 = no damage, 100 = complete death
Method in brief: as §2

[6] = test system: green foxtail (Setaria viridis, SETVI); assay: as above; conditions: rated 14 days after application, 0 = no damage, 100 = complete death
Method in brief: as §2

[7] = test system: lambsquarters (Chenopodium album, CHEAL); assay: as above; conditions: rated 14 days after application, 0 = no damage, 100 = complete death
Method in brief: as §2

[8] = test system: barnyardgrass (Echinochloa crus-galli, ECHCG); assay: as above; conditions: rated 14 days after application, 0 = no damage, 100 = complete death
Method in brief: as §2

[9] = test system: johnsongrass (Sorghum halepense, SORHA); assay: as above; conditions: rated 14 days after application, 0 = no damage, 100 = complete death
Method in brief: as §2

[10] = test system: ivyleaf morningglory (Ipomoea hederacea, IPOHE); assay: as above; conditions: rated 14 days after application, 0 = no damage, 100 = complete death
Method in brief: as §2

[11] = test system: sicklepod (Cassia obtusifolia, CASOB); assay: as above; conditions: rated 14 days after application, 0 = no damage, 100 = complete death
Method in brief: as §2

[12] = test system: common ragweed (Ambrosia artemisizfolia L., AMBEL); assay: Post-emerge test, greenhouse herbicide activity screening; conditions: post-emerge, 14 days after application, rating scale 0-100
Method in brief: (§3)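 Sandy loam pots; pre-emerge: sown 1 d pre-spray, surface-watered after, then bottom-watered. Post-emerge: sown 8–21 d before, 2–3 leaf stage, + 0.25% v/v NIS, bottom-watered. Acetone, 187 l/ha track spray, 15–1000 g ai/ha. 0–100 injury score, day 14.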

[13] = test system: large crabgrass (Digitaria sanguinalis, DIGSA); assay: as above; conditions: post-emerge, 14 days after application, rating scale 0-100
Method in brief: as §3

[14] = test system: velvetleaf (Abutilon theophrasti, ABUTH); assay: as above; conditions: post-emerge, 14 days after application, rating scale 0-100
Method in brief: as §3

[15] = test system: green foxtail (Setaria viridis, SETVI); assay: as above; conditions: post-emerge, 14 days after application, rating scale 0-100
Method in brief: as §3

[16] = test system: lambsquarters (Chenopodium album, CHEAL); assay: as above; conditions: post-emerge, 14 days after application, rating scale 0-100
Method in brief: as §3

[17] = test system: redroot pigweed (Amaranthus retroflexus, AMARE); assay: as above; conditions: post-emerge, 14 days after application, rating scale 0-100
Method in brief: as §3

[18] = test system: barnyardgrass (Echinochloa crus-galli, ECHCG); assay: as above; conditions: post-emerge, 14 days after application, rating scale 0-100
Method in brief: as §3

[19] = test system: johnsongrass (Sorghum halepense, SORHA); assay: as above; conditions: post-emerge, 14 days after application, rating scale 0-100
Method in brief: as §3

[20] = test system: ivyleaf morningglory (Ipomoea hederacea, IPOHE); assay: as above; conditions: post-emerge, 14 days after application, rating scale 0-100
Method in brief: as §3

[21] = test system: sicklepod (Cassia obtusifolia, CASOB); assay: as above; conditions: post-emerge, 14 days after application, rating scale 0-100
Method in brief: as §3

[22] = test system: redroot pigweed (Amaranthus retroflexus, AMARE); assay: Pre-emerge test, greenhouse herbicide activity screening; conditions: rated 14 days after application, 0 = no damage, 100 = complete death
Method in brief: as §3

[23] = test system: field corn (Zea mays L., var. Dekalb 535, CORN); assay: Pre-emerge test, crop safety; conditions: rated 14 days after application, 0 = no damage, 100 = complete death
Method in brief: (§4)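 Plants grown in 10 cm pots of sandy loam mix received acetone-dissolved compounds through a moving flat-fan nozzle. Doses ranged from 15 to 1000 g ai/ha. Pre-emerge pots were seeded one day earlier, post-emerge pots 8–21 days earlier. Fourteen days on, each pot was graded 0–100 for damage.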

[24] = test system: upland rice (Oryza sp., var. Tebonnet, RICE); assay: Pre-emerge test, crop safety; conditions: rated 14 days after application, 0 = no damage, 100 = complete death
Method in brief: as §4

## COc1c(Cl)cc(F)c(-n2c(=O)cc(C(F)(F)F)n(C)c2=O)c1NC(=O)c1ccc(Br)cc1 [2-61]
[1]; 63 g ai/ha
  phytotoxicity rating CORN: 35
[1]; 250 g ai/ha
  phytotoxicity rating CORN: 90
[2]; 63 g ai/ha
  phytotoxicity rating RICE: 60
[2]; 250 g ai/ha
  phytotoxicity rating RICE: 90
[3]; 63 g ai/ha
  Pre-emerge Herbicidal Activity, phytotoxicity rating (0-100), AMBEL: 80
[3]; 250 g ai/ha
  Pre-emerge Herbicidal Activity, phytotoxicity rating (0-100), AMBEL: 100
[4]; 63 g ai/ha
  Pre-emerge Herbicidal Activity, phytotoxicity rating (0-100), DIGSA: 90
[4]; 250 g ai/ha
  Pre-emerge Herbicidal Activity, phytotoxicity rating (0-100), DIGSA: 100
[5]; 63 g ai/ha
  Pre-emerge Herbicidal Activity, phytotoxicity rating (0-100), ABUTH: 100
[5]; 250 g ai/ha
  Pre-emerge Herbicidal Activity, phytotoxicity rating (0-100), ABUTH: 100
[6]; 63 g ai/ha
  Pre-emerge Herbicidal Activity, phytotoxicity rating (0-100), SETVI: 10
[6]; 250 g ai/ha
  Pre-emerge Herbicidal Activity, phytotoxicity rating (0-100), SETVI: 100
[7]; 63 g ai/ha
  Pre-emerge Herbicidal Activity, phytotoxicity rating (0-100), CHEAL: 100
[7]; 250 g ai/ha
  Pre-emerge Herbicidal Activity, phytotoxicity rating (0-100), CHEAL: 100
[8]; 63 g ai/ha
  Pre-emerge Herbicidal Activity, phytotoxicity rating (0-100), ECHCG: 85
[8]; 250 g ai/ha
  Pre-emerge Herbicidal Activity, phytotoxicity rating (0-100), ECHCG: 100
[9]; 63 g ai/ha
  Pre-emerge Herbicidal Activity, phytotoxicity rating (0-100), SORHA: 80
[9]; 250 g ai/ha
  Pre-emerge Herbicidal Activity, phytotoxicity rating (0-100), SORHA: 100
[10]; 63 g ai/ha
  Pre-emerge Herbicidal Activity, phytotoxicity rating (0-100), IPOHE: 90
[10]; 250 g ai/ha
  Pre-emerge Herbicidal Activity, phytotoxicity rating (0-100), IPOHE: 100
[11]; 63 g ai/ha
  Pre-emerge Herbicidal Activity, phytotoxicity rating (0-100), CASOB: 40
[11]; 250 g ai/ha
  Pre-emerge Herbicidal Activity, phytotoxicity rating (0-100), CASOB: 100
[12]; 63 g ai/ha
  phytotoxicity rating AMBEL: 100
[12]; 250 g ai/ha
  phytotoxicity rating AMBEL: 95
[13]; 63 g ai/ha
  phytotoxicity rating DIGSA: 20
[13]; 250 g ai/ha
  phytotoxicity rating DIGSA: 50
[14]; 63 g ai/ha
  phytotoxicity rating ABUTH: 100
[14]; 250 g ai/ha
  phytotoxicity rating ABUTH: 100
[15]; 63 g ai/ha
  phytotoxicity rating SETVI: 60
[15]; 250 g ai/ha
  phytotoxicity rating SETVI: 90
[16]; 63 g ai/ha
  phytotoxicity rating CHEAL: 100
[16]; 250 g ai/ha
  phytotoxicity rating CHEAL: 100
[17]; 63 g ai/ha
  phytotoxicity rating AMARE: 100
[17]; 250 g ai/ha
  phytotoxicity rating AMARE: 100
[18]; 63 g ai/ha
  phytotoxicity rating ECHCG: 40
[18]; 250 g ai/ha
  phytotoxicity rating ECHCG: 70
[19]; 63 g ai/ha
  phytotoxicity rating SORHA: 20
[19]; 250 g ai/ha
  phytotoxicity rating SORHA: 70
[20]; 63 g ai/ha
  phytotoxicity rating IPOHE: 100
[20]; 250 g ai/ha
  phytotoxicity rating IPOHE: 100
[21]; 63 g ai/ha
  phytotoxicity rating CASOB: 100
[21]; 250 g ai/ha
  phytotoxicity rating CASOB: 100
[22]; 63 g ai/ha
  Pre-emerge Herbicidal Activity, phytotoxicity rating (0-100), AMARE: 100
[22]; 250 g ai/ha
  Pre-emerge Herbicidal Activity, phytotoxicity rating (0-100), AMARE: 100
[23]; 63 g ai/ha
  Pre-emerge phytotoxicity rating (0-100), crop damage, CORN: 10
[23]; 250 g ai/ha
  Pre-emerge phytotoxicity rating (0-100), crop damage, CORN: 95
[24]; 63 g ai/ha
  Pre-emerge phytotoxicity rating (0-100), crop damage, RICE: 75
[24]; 250 g ai/ha
  Pre-emerge phytotoxicity rating (0-100), crop damage, RICE: 95
